From ChEMBL document CHEMBL4715694, “Discovery of novel tetrahydroisoquinoline-containing pyrimidines as ALK inhibitors” (Bioorg Med Chem, 2016)

Key:
in vivo [1] = details: rat, po, 10 mg/kg
in vivo [2] = details: rat, po, 10 mg/kg; remark: listed apart in the source
in vitro [3] = details: rat, liver microsomes
in vitro [4] = details: human, liver microsomes

## Cc1cc(Nc2ncc(Cl)c(Nc3ccccc3S(=O)(=O)C(C)C)n2)c(OC(C)C)cc1C1CCNCC1 [CERITINIB]
In vivo [1]
  Cmax: 90 ng/mL
In vivo [2]
  AUC: 1400 ng·h/mL
In vitro [3]
  remaining at 0.5 h, 1 µM: 98%
In vitro [4]
  remaining at 0.5 h, 1 µM: 88%
